In general, kinetic solubility refers to the concentration staying in solution when a stock, usually in DMSO, is diluted into the medium.

Values after ≈ are worked out from the molar mass of the structure shown.

The text below walks through data of PubChem BioAssay AID1996.

The conditions of the data set: buffer; pH 7.4; 200.0 µM.
On to `Cn1c(-c2cccc(Br)c2)cnc1NCc1ccccc1O`, for which the solubility (kinetic) came out at 6.3 µg/mL (≈ 17.6 µM). In the case of `CCCc1nc2oc3c(=O)[nH]cnc3c2c2c1COC(C)(C)C2`, the solubility (kinetic) was over 47 µg/mL. Under `O=C1CN=C(c2ccccc2)c2ccccc2N1` stands 27.2 µg/mL (≈ 115 µM); under `CCOC(=O)c1c(SC)[nH]c2c(Cl)cccc2c1=O`, 1.4 µg/mL (≈ 4.7 µM). Under `COc1cc(OC)c(C(=O)OCC(=O)Nc2ccc(N3CCOCC3)cc2)cc1OC` stands 6.5 µg/mL (≈ 15.1 µM). Under `CCCCC(CC)CNC(=O)Cn1c(=O)[nH]c2ccsc2c1=O` (stereo not given) stands 33.5 µg/mL (≈ 99.3 µM); under `COc1ccc(-c2nc(C)sc2CC(=O)O)cc1OC`, 42 µg/mL (≈ 143 µM); under `NC(=[NH2+])SCC1=CCS(=O)(=O)C1.[Br-]`, 39.4 µg/mL. Consider `CC1(CCc2ccccc2)NC(=O)N(CC(=O)O)C1=O` (stereo not given), for which the kinetic solubility was 16.6 µg/mL (≈ 60.1 µM).

On to `COc1ccc(/C(N)=N/OC(=O)c2ccc(OC)c([N+](=O)[O-])c2)cc1OC`, for which the kinetic solubility is 0.6 µg/mL (≈ 1.6 µM). Next, `O=C(CN1CCCCCC1)Nc1ccc(Br)cc1[N+](=O)[O-]`: 0.4 µg/mL (≈ 1.12 µM). Under `COc1ccc(/C=C2\C(=O)ON=C2c2ccccc2)cc1` stands 39.1 µg/mL (≈ 140 µM). `CCc1ccc(CN2CCSCC2)cc1` showed a kinetic solubility of 8.5 µg/mL (≈ 38.4 µM). Under `CN(CC(=O)NC1CCCC1)S(=O)(=O)c1cccc(Cl)c1` stands 7.6 µg/mL (≈ 23 µM); under `FC(F)(F)c1cccc(NC(=S)N2CCCCCC2)c1`, 22.3 µg/mL (≈ 73.8 µM). Under `Cc1ccc(OCC(=O)Nc2ccncc2)c(C)c1` stands 32.1 µg/mL (≈ 125 µM). Under `CSc1ccccc1C(=O)NCCSc1ccc(C)cc1` stands 17.2 µg/mL (≈ 54.2 µM). Compound `Cn1c(CO)cnc1S(=O)(=O)Cc1ccc(Cl)cc1` gave a solubility (kinetic) of over 45.1 µg/mL. Next, `Cc1nn(CC(=O)NCCCN2CCCC2=O)c(C)c1[N+](=O)[O-]`: over 48.5 µg/mL; `Brc1ccccc1CN1CCC(Cc2ccccc2)CC1`: 2.6 µg/mL (≈ 7.55 µM). Next, `Cc1ccc(NC(=O)COC(=O)c2cccnc2)cc1`: over 40.5 µg/mL; `CNC(=S)Nc1cc2oc3ccccc3c2cc1OC`: 33.7 µg/mL (≈ 118 µM).

Regarding `COc1ccc(NS(=O)(=O)N2CCOCC2)cc1`, the solubility (kinetic) was over 40.8 µg/mL. For the compound `Cc1ccc(NC(=O)COC(=O)c2ccc3c(c2)OCO3)c(C)c1`, the kinetic solubility was under 0.7 µg/mL. Next, `C=CC(=O)NC(NC(=O)C=C)c1ccccc1F`: over 37.2 µg/mL; `O=S(=O)(NCc1nc(-c2ccccc2)no1)c1ccc(F)cc1`: 6.4 µg/mL (≈ 19.2 µM). Next, `COc1ccc(NC(=O)CC2C(=O)NCCN2C(=O)c2ccccc2)cc1` (stereo not given): over 55.1 µg/mL. Next, `Cc1ccccc1NC(=O)CCC(=O)OCC(=O)c1cccc([N+](=O)[O-])c1`: over 55.6 µg/mL; `CN(c1ncnc(N)c1[N+](=O)[O-])C1CCCCC1`: over 37.7 µg/mL; `O=C(Nc1ncccn1)c1ccc([N+](=O)[O-])cc1[N+](=O)[O-]`: 38.7 µg/mL (≈ 134 µM). Take `c1ccc2c(c1)CCc1c-2nc2ccccc2c1N1CCOCC1`: the solubility (kinetic) is 10.5 µg/mL (≈ 33.2 µM). Next, `O=C(NCc1cccnc1)c1ccccc1NS(=O)(=O)c1ccc(Br)cc1`: over 66.9 µg/mL. As for `Cc1ccc(CN(Cc2ccco2)C(=O)c2ccco2)cc1`, the solubility (kinetic) was found to be 35.4 µg/mL (≈ 120 µM). Next, `Cc1ccc(SCC(=O)Nc2ccc3c(c2)C(=O)N(C)C3=O)cc1`: 3.2 µg/mL (≈ 9.4 µM); `O=C(Nc1ncc2c(n1)-c1ccccc1OC2)c1ccc(F)cc1`: 6.1 µg/mL (≈ 19 µM); `CCN1CCn2c3c(c4cccc(C)c42)CCCC31.Cl` (stereo not given): 33.6 µg/mL.

The compound `Cc1ccc(Cn2c(CCC(=O)O)nc3ncccc3c2=O)cc1` yielded a solubility (kinetic) of over 48.5 µg/mL. Next, `Cc1c(-c2nc(-c3ccncc3)no2)cccc1[N+](=O)[O-]`: 1.7 µg/mL (≈ 6.02 µM). Next, `Cn1c(N)nc2ccccc2c1=O`: 21.9 µg/mL (≈ 125 µM); `Cc1ccc(C(C)NC(=O)c2c(-c3ccccc3)noc2C)cc1C` (stereo not given): 2.4 µg/mL (≈ 7.18 µM); `O=C(CSc1nncc2ccccc12)Nc1ccccc1`: over 44.3 µg/mL.

Turning to `O=C(NCCNC(=O)c1ccc(Cl)cc1Cl)c1ccco1`, the kinetic solubility came out at 30.7 µg/mL (≈ 93.8 µM). Under `Cc1cc(C(=O)Nc2ccc(Br)cn2)sc1C` stands 2.2 µg/mL (≈ 7.07 µM).

The compound `N#Cc1sc(NCc2cccc(Cl)c2)nc1Cl` registered a kinetic solubility of 2.4 µg/mL (≈ 8.45 µM). Under `C=CCCC(=O)N1CCCC(Cc2cccc(Cl)c2)(C(=O)OCC)C1` (stereo not given) stands over 54.6 µg/mL. The compound `Cc1nc(/N=C(\N)NC(=O)NC2CCCCC2)nc2ccccc12` gave a solubility (kinetic) of 12.7 µg/mL (≈ 38.9 µM). Next, `Cl.OCCN1C2=NCCCN2c2ccccc21`: over 38.1 µg/mL.

Consider `CN(C(=O)c1cccc(C(F)(F)F)c1)C1CCCc2ccccc21` (stereo not given), for which the solubility (kinetic) came out at 19.5 µg/mL (≈ 58.5 µM). Next, `CCCC(=O)Nc1ccc(OCC(O)CNC(C)C)c(C(C)=O)c1.Cl` (stereo not given): over 55.9 µg/mL.

In turn, `COc1ccc(OC)c(NC(=O)C2=C(C)NC(=O)NC2c2cccs2)c1` (stereo not given) displayed a kinetic solubility of 25.3 µg/mL (≈ 67.7 µM). In turn, `O=C(CSc1nnc2ccccn12)NC(=O)c1ccccc1` yielded a kinetic solubility of over 46.9 µg/mL. Next, `Cc1ccnc(NC(=O)c2oc3ccccc3c2C)c1`: 3.6 µg/mL (≈ 13.5 µM); `COc1ccc(/C=C2\SC(=O)N(CCCC(=O)Nc3cc(Cl)ccc3C(=O)O)C2=O)cc1`: over 71.2 µg/mL; `Nc1cc(C(=O)O)ccc1Sc1ccccc1C(=O)O`: over 43.4 µg/mL. Next, `Cc1csc(NC(=O)CSc2ccccc2F)n1`: over 42.4 µg/mL; `COc1cc(C(F)(F)F)c(C(=O)N(C)Cc2cccc(Cl)c2)cn1`: 43.6 µg/mL (≈ 122 µM). Next, `Nc1ccccc1Sc1ccc(C(F)(F)F)cc1[N+](=O)[O-]`: 5.6 µg/mL (≈ 17.8 µM). In the case of `O=C(C1CCCN(Cc2ccccc2F)C1)N1CCCC1.O=C(O)C(=O)O` (stereo not given), the kinetic solubility amounted to 43.2 µg/mL. The compound `Cc1[nH]c2ccccc2c1C(=O)CN1CCCC(C)C1` (stereo not given) yielded a solubility (kinetic) of 40.5 µg/mL (≈ 150 µM). Compound `O=C(c1ccc(Br)cc1)C12CN3CN(CN(C3)C1)C2` displayed a kinetic solubility of over 48.3 µg/mL. As to `O=C(CN1CCCC1)Nc1c(Cl)cccc1Cl`, the solubility (kinetic) worked out at 36.9 µg/mL (≈ 135 µM). Next, `Cc1ccc(NC(=O)CN2C(=O)S/C(=C\c3ccccn3)C2=O)cc1`: 0.9 µg/mL (≈ 2.55 µM). Next, `CCCCOC(=O)c1ccc(NC(=O)C(=O)NCc2ccccn2)cc1`: 0.8 µg/mL (≈ 2.25 µM); `CCc1cc2ccc(C)cc2nc1SCC(=O)NC1CCCC1`: 1.2 µg/mL (≈ 3.65 µM).

For the compound `Nc1nccc(/C=C/c2ccc(Cl)cc2)n1`, the kinetic solubility is 3.2 µg/mL (≈ 13.8 µM). Next, `CC(C)(C#CC(O)(c1ccccc1)c1ccccc1)N1CCCCC1`: 46.3 µg/mL (≈ 139 µM); `COc1ccc(NC(=O)C2COc3ccccc3O2)cc1` (stereo not given): over 42.8 µg/mL.

In turn, `O=S(=O)(NCCn1cccc1)c1ccc2ccccc2c1` displayed a kinetic solubility of 2.1 µg/mL (≈ 6.99 µM). Next, `COc1cccc(N2C(=O)C3CCCN3C2=S)c1` (stereo not given): over 39.3 µg/mL; `COc1ccc(/C=N/OC(=O)Nc2ccc(Cl)cc2)c(OC)c1`: 6.2 µg/mL (≈ 18.5 µM). As for `COc1ccccc1OCC#CCn1ccnc1.O=C(O)C(=O)O`, the solubility (kinetic) was over 49.8 µg/mL.

Take `CCOc1ccccc1N1CCN(C(=O)CC(C)(C)C)CC1`: the kinetic solubility came to 45.1 µg/mL (≈ 148 µM). Next, `CC(=O)C(Cc1ccccc1)NC(=O)COc1ccc2c(c1)OCO2` (stereo not given): over 51.2 µg/mL; `O=C(OCC(=O)N1CCc2ccccc21)c1ccc([N+](=O)[O-])o1`: 8.2 µg/mL (≈ 25.9 µM); `CC#CC[N+](C)(C)CC(=O)c1ccccc1.[Br-]`: over 44.4 µg/mL.
